Source: PMC4515242, “ESR and X-ray Structure Investigations on the Binding and Mechanism of Inhibition of the Native State of Myeloperoxidase with Low Molecular Weight Fragments” (Applied Magnetic Resonance, 2015)

Legend:
hMPO = target: T1, hMPO (Homo sapiens, UniProt P05164); test: Alpha screen assay: inhibition of MPO-initiated nitration of the Apo-A1 peptide ([…]); assay type: biochemical; settings: MPO 11.8 nM, pH 7.4, 45 min RT
T1 construct: purchased Biodesign A31804H
T1 sequence (P05164 49-745): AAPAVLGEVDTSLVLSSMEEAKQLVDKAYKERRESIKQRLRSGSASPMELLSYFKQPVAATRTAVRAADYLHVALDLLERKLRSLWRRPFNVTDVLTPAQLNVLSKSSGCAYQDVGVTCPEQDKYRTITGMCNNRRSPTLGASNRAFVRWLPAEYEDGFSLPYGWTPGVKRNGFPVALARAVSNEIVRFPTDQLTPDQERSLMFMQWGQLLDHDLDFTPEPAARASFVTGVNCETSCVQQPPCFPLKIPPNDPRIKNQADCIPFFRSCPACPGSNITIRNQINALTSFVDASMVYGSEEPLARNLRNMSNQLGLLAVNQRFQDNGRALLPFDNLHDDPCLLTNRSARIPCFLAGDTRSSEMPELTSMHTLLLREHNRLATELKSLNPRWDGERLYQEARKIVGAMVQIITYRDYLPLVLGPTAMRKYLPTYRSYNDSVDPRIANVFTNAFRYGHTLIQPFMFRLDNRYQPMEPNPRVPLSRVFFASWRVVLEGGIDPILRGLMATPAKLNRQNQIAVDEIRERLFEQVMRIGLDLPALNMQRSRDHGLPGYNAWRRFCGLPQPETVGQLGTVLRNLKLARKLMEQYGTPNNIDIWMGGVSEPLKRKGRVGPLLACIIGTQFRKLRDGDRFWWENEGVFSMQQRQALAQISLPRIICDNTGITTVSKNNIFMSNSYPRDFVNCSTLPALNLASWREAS
Description: In a typical experiment, MPO (11.8 nM final concentration) in 20 mM phosphate buffer pH 7.4, 10 % glycerol and 0.005 % gelatin (PB) is added to each well of a multi-well plate containing 20 μl PB ± compound (final concentration of DMSO = 0.9 %). The reaction is started by the addition of 20 μl PB containing 1.5 μM ApoAI peptide substrate, 300 μM diethylenetriaminepentaacetic acid (DTPA), 300 μM sodium nitrite, and 30 μM H2O2. The total reaction volume is 60 μl. The plates are incubated with agitation for 45 min at RT. The reaction is terminated with the addition of 20 μl of a stop solution containing 11.2 nM rabbit anti-nitrotyrosine antibody (final conc. of 2.8 nM), 100 μg/ml streptavidin donor beads, and 100 μg/ml protein A acceptor beads (final concentration of […]), FBS (1.6 % final concentration) in Superblock buffer. The plates are sealed, incubated in the dark for 1 h, and read on a Packard Fusion alpha plate reader.
Through a chloride independent pathway, MPO catalyzes the one electron oxidation of nitrite ions to nitrogen dioxide radicals which then […] protein amino acids like Tyrosine. We used the Apo-A1 peptide substrate ([…]) to follow the nitration of the Tyrosine (indicated by Y in the scheme below): MPO+H2O2→Compound INO2-+Compound I→NO2·+Compound II [drawing 1] Our initial experiments focused on identifying inhibitors that bind to the heme to inhibit the above catalytic action. A representative set of inhibitors is collected in Fig. 1a (strong binders, vide infra) and b (non binders, vide infra).

[1] = target: T2, native state (Fe3+) of hMPO (Homo sapiens, UniProt P05164); test: Low temperature ESR binding assay (binding-induced g shift, Rrelative); settings: for ESR Rrelative: Rrelative = (Rbound - Rnative)/Rnative x 100, inhibitor:MPO 40:1, pH 6, 6 % DMSO, 4-7 K; for Δg: absolute difference between g X and g Y of the bound complex; for ESR Binding: class by Rrelative, inhibitor:MPO 40:1; for g X / g Y: electronic g value of the bound complex, X-band ESR, 5 K
T2 construct: purchased Athens Research and Technology
T2 sequence (P05164 49-745): T1 sequence (P05164 49-745)
Description: After 5-min. incubation at room temperature, the entire reaction mixture (0.235 mL) was transferred to the ESR quartz tubes. To avoid the quartz tubes breaking during the rapid freezing cycles, the ESR tubes were initially frozen in a 1:1 Isopentane-Cyclohexane mixture cooled with dry ice powder and then transferred to a liquid nitrogen Dewar to be queued up for ESR measurements. The reaction mixture contained a final concentration of 6 % DMSO. ESR spectra were recorded on a Varian E-12, X-band spectrometer equipped with an Air Products liquid helium cryostat.
The experimental g values correspond to the spin Hamiltonian pertinent to the high-spin ion (S = 5/2).1 H=DSZ2-1/3SS+1+E/DSX2-SY2+βgeS.Be where D and E are the eigen values of the axial and rhombic field components, i.e., the symmetry of the ligand (inhibitors approaching heme in this case). […] When the heme lodges inside the protein, the protein side chain amino acid (histidine) approaches the heme vicinity and either binds (axially) directly to the iron in the heme pocket. […] Thus, the fifth ligand leads to lower (rhombic) symmetries causing the signal at g ~ 6 to split. This non-tetragonal splitting of the heme is quantitated by the relationship,2 E/D=Δg/48 where ∆g represents the absolute difference between the gX and gY components. Alternatively, making use of the fact that E/D maximum value = 1/3, one can simplify the above expression as a percentage of rhombicity, R:3 R=Δg/16×100%. […] To rank-order molecules in terms of their ability to distort the heme pocket/plane environment, we used a ratio of total distortion in the bound complex w.r.t. distortion seen in the native unbound enzyme:4 Rrelative=Rbound-Rnative/Rnative×100.
From the relative rhombicities of the bound and unbound complex, a measure of the strength of binding could be derived. […] For the ease of classification, we have empirically defined those with 5 ≤ Rrelative ≥ 2 as weak binding; 15 ≥ Rrelative ≥ 10 as moderate binding; and 25 ≥ Rrelative ≥ 15 as strong binding (Table 2).

[2] = ABTS radical cation decolorization assay to measure the antioxidant capacity; settings: % inhibition at 20 uM single dose, read at 734 nm after 30 min
Description: The assay was modeled after the published procedure. Briefly, ABTS radical cation was prepared by adding 100 μl of 70 mM K2S2O8 to 10 ml ABTS, followed by vortexing and incubating at 37 °C water bath for 2 h. […] Trolox standards are dissolved in water. The reaction is started by adding the ABTS radical cation solution to the MPO inhibitors or Trolox (final concentration 20 μM). The plate is gently shaken for 1 min and then set on a bench top at room temperature for 30 min.

[3] = ESR, Inhibitor:MPO ratio 40:1, DMSO 6 %

SMILES | IC50 (hMPO) | proportion of the enzyme bound [1, 3] | proportion of the enzyme unbound [1, 3] | ESR Rrelative [1] | Δg [1] | ESR Binding [1] | g X [1] | g Y [1] | % Anti oxidant potential [2]
O=C(O)c1nn(-c2ccccc2)cc1O [LSN17948] | 520 nM | 70% | 30% | 24.2 | 2.256 | Strong (25 ≥ Rrelative ≥ 15 as strong binding) | 6.995 | 4.739 | 42.1%
O=C(O)c1n[nH]c(-c2ccccc2)c1O [LSN87637] | 674 nM |  |  | 14.1 | 2.09 | Moderate (15 ≥ Rrelative ≥ 10 as moderate binding) | 6.917 | 4.827 | 65.9%
O=C(O)c1nn(-c2cccc3ccccc23)cc1O [LSN2944556] | 669 nM |  |  | 29.1 | 2.308 | Strong (25 ≥ Rrelative ≥ 15 as strong binding) | 7.0681 | 4.7601 | 67.6%
